One data set deals with toxic extensor seizure. Nature of the data set: Mouse maximal electroshock test (MES), anticonvulsant model. Conditions: for MES Response, number of mice protected/number of mice tested: oral, 300 mpk. Type of data set: in vivo. How it is done:
Procedure for Testing in Mouse Anticonvulsant Model
The activity of the present compounds as anticonvulsant agents was determined using a standard mouse “maximal electroshock test” (MES). In this test, activity was indicated by a block of the […] extensor seizure, as described by Swinyard, et al. (J. Pharmacol. Exptl. Therap., 1952, 106, 319). A more recent description of current anticonvulsant drug screening is given in Swinyard, et al., in Epilepsia, 1978, 19, 409.
The anticonvulsant activity of the instant compounds is shown in Table 5 and was evaluated according to the Swinyard (1952) method. The abbreviations used in the table have the following meanings: mpk refers to the dose orally administered in “mg per Kg;” and, ED50 refers to the “50% Effective Dose” orally administered in mpk. The values marked by an * represent the number of mice protected/number of mice tested; therefore, a value of 3/3 represents that the number of mice protected matched the number of mice tested at the indicated dose.
In general terms: The maximal electroshock test induces tonic seizures with an electrical stimulus.

The subject of another data set is mechanical allodynia. Nature of the data set: Chung Model (spinal nerve ligation), mechanical allodynia with von Frey hairs. To be noted: rat; for ED50 in the Chung Model: orally administered; for Chung Model result in words (IA) / % MPE (Maximum Possible Effect) in the Chung Model: oral, screening dose (not given). Set-up: key to Chung Model result in words (IA): IA: inactive at the screening dose. Type of data set: in vivo. The source says:
Procedure for Testing Antiallodynic Effect
The procedure used to detect the antiallodynic effect of a compound of the present invention for which there is a good correlation with human efficacy for the treatment of pain is the procedure for the measurement of allodynia found in the Chung Model (Kim S. H. and Chung J. M., An Experimental Model for Peripheral Neuropathy Produced by Segmental Spinal Nerve Ligation in the Rat, Pain, 1992, 50, 355-363). The antiallodynic effect of the composition of the present invention in the Chung Model is expressed in % MPE (Maximum Possible Effect).
Male Sprague-Dawley rats, weighing approximately 200 g each were anesthetized with isoflurane. The spinal nerve at the level of L5 was exposed through an incision just left of the dorsal midline and tightly ligated with 6-0 silk. At various times after surgery, animals were tested for mechanical allodynia with von Frey hairs (monofilaments which are calibrated to bend under a certain amount of pressure, ranging from 0.41 to 15.1 g). In order to calculate a paw withdrawal threshold (PWT), tactile allodynia was measured by recording the pressure at which the affected paw was withdrawn from graded stimuli according to the procedure of S. R. Chaplan, J. W. Pogrel, T. L. Yaksh, Role of Voltage-Dependent Calcium Channel Subtypes in Experimental Tactile Allodynia, J. Pharmacol. Exp. Ther., 1994, 269, 1117-1123. Normal rats can withstand at least 15 g of pressure without responding. Operated rats, however, can respond to as little as 0.25 g of pressure. The surgery was deemed successful if the animal responded with a PWT of less than 4 g of pressure applied to the affected paw. […] The PWT was used to calculate the % maximal possible effect (% MPE) according to the formula:
% MPE=100×[(PWT−CT)/(CO−CT)];
wherein PWT is defined as Paw Withdrawal Threshold, CT is Control Threshold, and CO is Cut Off (defined as 15 g).
The sham operation consisted of a similar surgery; the spinal nerve was visualized without being ligated.
Compounds selected from Formula (I) and Formula (II) were tested for activity in treating or modulating neuropathic pain by being dissolved or suspended in either water or hydroxypropyl methylcellulose, respectively. […] were fasted overnight prior to dosing. Animals were orally dosed and dosage volumes were calculated on a 4 mL/kg basis.

The test system of data set [1] is voltage-gated sodium channels. Nature of the data set: [14C]guanidinium flux assay, veratridine-stimulated SK-N-SH cells. In kind it is cell-based. Conditions: 100 μM compound, 100 μM veratridine. The method, then: Screening Assay for Voltage-Gated Sodium Channel Antagonists
[^14C] Guanidinium Flux Assay
SK-N-SH neuroblastoma cells were maintained in a propagation medium containing modified Eagle's medium and 10% (v/v) fetal bovine serum and were incubated at 37° C. in a 5% CO2 atmosphere. Only cells with fewer than 20 passages were used in each assay. All drugs were prepared in DMSO, and the final concentration of solvent was less than 0.1% (v/v). Veratridine, a toxin that selectively promotes persistent activation of voltage-gated sodium channels, served as the stimulus.
SK-N—SH cells were plated at 1×10^5 cells/well in 96-well Cytostar-T microscintillating plates in propagation medium and experiments were performed 6-7 days after plating. Prior to assay, the SK-N-SH cells were washed twice with assay buffer containing 50 mM HEPES (pH 7.45), 5.4 mM potassium chloride, 0.8 mM magnesium chloride, 130 mM choline chloride, 5.5 mM glucose and 0.1 mg/mL bovine serum albumin. Next, the plates were allowed to equilibrate for 10 min at 37° C. in assay buffer. […] The 96-well dosing plate was prepared by mixing 25 μL of a drug/assay buffer solution per well with 25 μL of 0.7 μCi/mL [^14C]guanidine hydrochloride in assay buffer. […] The plates were incubated for 1 hr at room temperature and the radioactivity was counted in a 1450 Microbeta scintillation counter. […]

Where a name gives a salt, the structure may show the parent alone. Marks after values point to notes of the source that are not given here.

Data on 17 compounds can be found in patent US20040058980A1, “Useful aroyl pyrrole heteroaryl methanones and methanols” (priority 2001, published 2004).

The term melting point denotes the temperature, or range, at which the solid turns liquid. `Cc1c(C(O)c2ccncc2)c(C)n(C)c1C(=O)c1ccc(Cl)cc1` (stereo not drawn) (as salt: hydrochloride) [Cpd 18, (4-Chlorophenyl)-[4-(hydroxypyridin-4-yl-methyl)-1,3,5-trimethyl-1H-pyrrol-2-yl]methanone] registered a melting point of 174 to 176 °C.

Compound `Cn1cc(C(=O)c2ccncc2)cc1C(=O)c1ccc(Cl)cc1` [Cpd 1, [5-(4-Chlorobenzoyl)-1-methyl-1H-pyrrol-3-yl]pyridin-4-ylmethanone] gave a melting point of 174 to 175 °C. Moreover, the “MES Response ED50” value in the data set with toxic extensor seizure (orally administered) was “ED50 = 156.97 mpk”. For the same compound, the “ED50 in the Chung Model” value in the data set on mechanical allodynia was “ED50 = 22 mpk”.

`Cn1cc(C(=O)c2ccncc2)cc1C(=O)c1ccccc1` [Cpd 2, (5-Benzoyl-1-methyl-1H-pyrrol-3-yl) pyridin-4-ylmethanone] displayed a melting point of 127 to 129 °C.

`Cc1ccc(C(=O)c2cc(C(=O)c3ccncc3)cn2C)cc1.Cl` [Cpd 3, [1-Methyl-5-(4-methyl benzoyl)-1H-pyrrol-3-yl]pyridin-4-ylmethanone Hydrochloride] yielded a melting point of 134 to 136 °C.

In the case of `Cl.Cn1cc(C(=O)c2ccncc2)cc1C(=O)c1cccs1` [Cpd 4, [1-Methyl-5-(thiophene-2-carbonyl)-1H-pyrrol-3-yl]pyridin-4-ylmethanone Hydrochloride], the melting point was 243 to 245 °C. Besides, the “MES Response, number of mice protected/number of mice tested” value in the data set with toxic extensor seizure is on record as 0/1* @ 300 mpk. In addition, the “Chung Model result in words (IA)” value with mechanical allodynia is given as “IA”.

Take `Cl.Cn1cc(C(=O)c2cccnc2)cc1C(=O)c1ccc(Cl)cc1.Cn1cc(C(=O)c2cccnc2)cc1C(=O)c1ccc(Cl)cc1.O` [Cpd 5, [5-(4-Chlorobenzoyl)-1-methyl-1H-pyrrol-3-yl]pyridin-3-ylmethanone Hydrochoride Hydrate [2:1:1]]: in the data set on mechanical allodynia, the “% MPE (Maximum Possible Effect) in the Chung Model” value was found to be 9%.

`Cn1cc(C(=O)c2ccccn2)cc1C(=O)c1ccc(Cl)cc1` [Cpd 6, [5-(4-Chlorobenzoyl)-1-methyl-1H-pyrrol-3-yl]pyridin-2-yl-methanone]: the melting point was in the range of 138 to 139 °C.

`Cl.Cn1cc(C(=O)c2ccc(F)cc2)cc1C(=O)c1cccnc1` [Cpd 7, (4-Fluorophenyl)-[1-methyl-5-(pyridine-3-carbonyl)-1H-pyrrol-3-yl]methanone Hydrochloride] displayed a melting point of 220 to 223 °C. For the same compound, in the data set with mechanical allodynia, the “ED50 in the Chung Model” value is “ED50 = 22 mpk”.

As for `Cn1cc(C(=O)c2ccc3ccccc3c2)cc1C(=O)c1cccnc1` [Cpd 8, [1-Methyl-5-(pyridine-3-carbonyl)-1H-pyrrol-3-yl]naphthalen-2-yl-methanone], the melting point lay within 132 to 133 °C. The “MES Response, number of mice protected/number of mice tested” value with toxic extensor seizure was 0/1* @ 300 mpk.

Compound `Cn1cc(C(=O)c2ccc(Cl)cc2)cc1C(=O)c1ccc(Cl)nc1` [Cpd 9, (4-Chlorophenyl)-[5-(6-chloropyridine-3-carbonyl)-1-methyl-1H-pyrrol-3-yl]methanone] returned a melting point of 150 to 152 °C.

`Cn1cc(C(=O)c2ccc(F)cc2)cc1C(=O)c1ccccn1` [Cpd 10, (4-Fluorophenyl)-[1-methyl-5-(pyridine-2-carbonyl)-1H-pyrrol-3-yl]methanone] gave a melting point of 159 to 161 °C. In addition, the “MES Response, number of mice protected/number of mice tested” value in the data set on toxic extensor seizure is on record as 0/1* @ 300 mpk.

In turn, `Cn1cc(C(=O)c2ccc(F)cc2)cc1C(=O)c1ccncc1` [Cpd 11, (4-Fluorophenyl)-[1-methyl-5-(pyridine-4-carbonyl)-1H-pyrrol-3-yl]methanone] gave a melting point of 155 to 157 °C. In addition, the “MES Response, number of mice protected/number of mice tested” value with toxic extensor seizure is recorded as 0/1* @ 300 mpk.

Compound `Cn1cc(C(O)c2ccncc2)cc1C(=O)c1ccc(Cl)cc1` (stereo not drawn) [Cpd 12, (4-Chlorophenyl)-[4-(hydroxypyridin-4-yl-methyl)-1-methyl-1H-pyrrol-2-yl]-methanone] yielded a melting point of 145 to 146 °C. Also, the “% GFI (% guanidinium flux inhibition) @ 100 μM” value in data set [1] was 4 @ 100%.

Compound `Cn1cc(C(=O)c2cnc[nH]2)cc1C(=O)c1ccc(Cl)cc1` [Cpd 13, (4-Chlorophenyl)-[4-(3H-imidazole-4-carbonyl)-1-methyl-1H-pyrrol-2-yl]methanone] showed a melting point of 198 to 200 °C. In the data set on mechanical allodynia, the “Chung Model result in words (IA)” value is “IA”.

As for `Cn1cc(C(=O)c2cc[n+]([O-])cc2)cc1C(=O)c1ccc(Cl)cc1` [Cpd 15, (4-Chlorophenyl)-[1-methyl-4-(1-oxypyridine-4-carbonyl)-1H-pyrrol-2-yl]methanone], the “% MPE (Maximum Possible Effect) in the Chung Model” value with mechanical allodynia turned out to be 7.9%.

As to `Cc1c(C(=O)c2ccc(F)cc2)c(C)n(C)c1C(=O)c1cccnc1` [Cpd 17, (4-Fluorophenyl)-[1,2,4-trimethyl-5-(pyridine-3-carbonyl)-1H-pyrrol-3-yl]methanone], the melting point was 85 to 88 °C.

Compound `Cn1cc(C(=O)c2ccnc(Cl)c2)cc1C(=O)c1ccc(Cl)cc1` [Cpd 19, (4-Chlorophenyl)-[4-(2-chloropyridine-4-carbonyl)-1-methyl-1H-pyrrol-2-yl]methanone] came in with a melting point of 182 to 184 °C.
